# From patent publication EP1165534B1, “BENZOYLGUANIDINE DERIVATIVES WITH ADVANTAGEOUS PROPERTIES, METHOD FOR PRODUCING THEM AND THEIR USE IN THE PRODUCTION OF MEDICAMENTS” (Boehringer Ingelheim Pharma GmbH & Co.KG, priority 1998, dated 2000)
# Counter-ions that a name gives are not always drawn. Like-named read-outs stand apart in the source and are kept apart here.
# Experiments:
# Na^+/H^+-Austauscher = molecular target: T1, Na^+/H^+-Austauscher (Homo sapiens, UniProt P19634); assay: Inhibition of the Na+/H+ exchanger in human colon cancer cells (HT-29), BCECF fluorescence pH measurement; format: cell-based; details: HT-29-Zellen; 4 min, 37°C, pH 7.0
# T1 construct: HT-29-Zellen werden bei 37°C, 5% CO2 in Wachstumsmedium inkubiert; endogenous in cells; host or cells: HT-29 human colon cancer cells
# Description: Inhibition des Na^+/H^+-Austauschers in humanen Darmkrebszellen (HT-29):
# HT-29-Zellen werden bei 37°C, 5% CO2 in Wachstumsmedium inkubiert. Nach 3-5 Tagen wurde das Wachstumsmedium entfernt, die Zellen gewaschen und mit 7.5 µM BCECF-AM (pH-sensitiver Fluoreszenzfarbstoff) bei 37°C ohne CO2 beladen. Nach 30 min werden die Zellen gewaschen und mit folgendem Medium angesäuert: 70 mM Cholinchlorid, 20 mM NH4Cl, 1 mM MgCl2, 1.8 mM CaCl2, 5 mM Glucose und 15 mM HEPES, pH 7.5.
# Nach 6 min Inkubation bei 37°C ohne CO2 werden die Zellen gewaschen und für 5 min mit Waschmedium inkubiert: 120 mM Cholinchlorid, 5 mM KCl, 1 mM MgCl2, 1.8 mM CaCl2, 5 mM Glucose und 15 mM MOPS, pH 7.0.
# Das Waschmedium wird entfernt und Kontrollmedium mit oder ohne Testverbindung wird zugegeben: 120 mM NaCl, 5 mM KCl, 1 mM MgCl2, 1.8 mM CaCl2, 5 mM Glucose, 15 mM MOPS, pH 7.0.
# Die Zellen werden 4 min bei 37°C ohne CO2 inkubiert und fluorimetrisch (CytoFluor 2350) vermessen. Die Fluoreszenz des Farbstoffes BCECF wird bei den Anregungswellenlängen 485 nm (pH-sensitiv) und 440 nm (nicht pH-sensitiv) und bei der Emissionswellenlänge 530 nm gemessen. Der cytoplasmatische pH wird aus dem Verhältnis der Fluoreszenzen bei 485 und 440 nm berechnet. Das Fluoreszenzverhältnis wird durch Messung des Fluoreszenzsignals nach Äquilibrierung von externem und internem pH mit Nigericin kalibriert.
# [1] = Pharmacokinetics in male rats after i.v. and oral administration; format: in vivo, Ratten; details: not fasted; for F: non-compartmental analysis (TopFit); for half-life: rat, plasma
# Description: Pharmakokinetische Daten:
# Für die Untersuchungen wurden männliche, ca. 200 g schwere Ratten (nicht nüchtern), verwendet. Zur intravenösen und oralen Applikation werden die Substanzen in einer angesäuerten wässerigen Lösung (pH 3) gelöst. Einzelne Bolus Injektionen (0.5 mg/kg i.v., 2.5 mg/kg p.o.) werden in die Schwanzvene injiziert (0.2 ml/200g) oder über eine Kanüle in den Magen gegeben (1 ml/200 g). Die Applikationslösungen werden analysiert, um die applizierte Dosis zu bestätigen. 0.5 ml Aliquots Blut werden vom retro-orbitalen Venenplexus unter kurzer Halothan-Betäubung mit heparinisierten Glass-Kapillaren nach folgendem Schema entnommen: • nach i.v. Applikation: 5 min, 15 min, 30 min, 1 h, 2 h, 4 h, 6 h, 8h; • nach oraler Applikation: 15 min, 1 h, 2 h, 4 h, 6 h, 8 h, 24 h, 32 h.
# Die Proben werden zentrifugiert und das Plasma bis zur Analyse bei - 20°C gelagert. Die Proben-Vorbereitung erfolgt durch flüssig-flüssig Extraktion mit einem internen Standard. Die Plasmaextrakte werden mit Reversed Phase HPLC, gekoppelt mit einem Elektrospray-Tandem-Massenspektrometer analysiert. Die pharmakokinetischen Daten werden aus den entsprechenden PlasmaKonzentrationen durch Kompartiment-freie Analyse mit dem TopFit Programm bestimmt (Heinzel, G., Woloszczak, R., Thomann, P. TopFit 2.0 - Pharmacokinetic and pharmacodynamic data analysis, system for the PC, Gustav Fischer Verlag, Stuttgart, Jena, New York, 1993).
# [2] = iv, 0.5 mg/kg i.v., read-out: t1/2 (i.v.) (converted)
# [3] = po, 2.5 mg/kg p.o., read-out: t1/2 (p.o.) (converted)
# T1 sequence (P19634 whole entry): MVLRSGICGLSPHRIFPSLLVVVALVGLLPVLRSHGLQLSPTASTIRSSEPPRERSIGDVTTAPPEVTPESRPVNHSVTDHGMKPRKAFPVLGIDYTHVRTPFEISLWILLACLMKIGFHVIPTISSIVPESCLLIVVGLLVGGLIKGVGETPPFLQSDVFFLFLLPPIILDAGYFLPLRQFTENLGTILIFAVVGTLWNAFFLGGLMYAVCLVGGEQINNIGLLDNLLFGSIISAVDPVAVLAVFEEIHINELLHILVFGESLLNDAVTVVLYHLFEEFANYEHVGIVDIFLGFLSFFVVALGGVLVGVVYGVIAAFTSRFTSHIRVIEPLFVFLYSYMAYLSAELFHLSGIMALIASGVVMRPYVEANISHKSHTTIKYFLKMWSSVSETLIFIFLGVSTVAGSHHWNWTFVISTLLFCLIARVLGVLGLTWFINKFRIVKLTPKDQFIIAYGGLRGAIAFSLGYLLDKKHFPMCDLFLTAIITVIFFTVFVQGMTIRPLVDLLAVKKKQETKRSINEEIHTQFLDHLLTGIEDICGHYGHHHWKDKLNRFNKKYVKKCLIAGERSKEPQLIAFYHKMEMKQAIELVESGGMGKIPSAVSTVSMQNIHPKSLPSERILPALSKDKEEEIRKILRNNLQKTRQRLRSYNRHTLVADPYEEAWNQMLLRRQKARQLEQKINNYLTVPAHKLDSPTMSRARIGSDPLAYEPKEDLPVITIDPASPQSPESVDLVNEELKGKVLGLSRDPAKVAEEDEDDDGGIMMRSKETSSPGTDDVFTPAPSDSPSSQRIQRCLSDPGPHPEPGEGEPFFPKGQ
IC50 (Na^+/H^+-Austauscher),SMILES,"F ([1]; 0.5 mg/kg i.v., 2.5 mg/kg p.o.)","half-life [1, 2]","half-life [1, 3]"
76 nM,"COc1cccc(C(=O)N2CCN(c3ccc(C(=O)NC(=N)N)cc3C(F)(F)F)CC2)c1 [Beispiel 1, 4-(4-(3-Methoxyphenylcarbonyl)-1-piperazinyl)-3-trifluormethylbenzoylguanidin-hydrochlorid]",–,–,–
–,"N=C(N)NC(=O)c1ccc(N2CCN(C(=O)c3ccc[nH]3)CC2)c(C(F)(F)F)c1 [Beispiel 2, 4-(4-(2-Pyrrolylcarbonyl)-1-piperazinyl)-3-trifluormethylbenzoylguanidin-methansulfonat]",63,1.3 h,5 h
84 nM,"COc1ccccc1C(=O)N1CCN(c2ccc(C(=O)NC(=N)N)cc2C(F)(F)F)CC1 [Beispiel 4, 4-(4-(2-Methoxyphenylcarbonyl)-1-piperazinyl)-3-trifluormethylbenzoylguanidin-hydrochlorid]",–,–,–
84 nM,"N=C(N)NC(=O)c1ccc(N2CCN(C(=O)c3ccco3)CC2)c(C(F)(F)F)c1 [Beispiel 7, 4-(4-(2-Furylcarbonyl)-1-piperazinyl)-3-trifluormethyl-benzoylguanidinmethansulfonat]",–,–,–
61 nM,"Cc1cccc(C(=O)N2CCN(c3ccc(C(=O)NC(=N)N)cc3C(F)(F)F)CC2)c1 [Beispiel 8, 4-(4-(3-Methylphenylcarbonyl)-1-piperazinyl)-3-trifluormethylbenzoylguanidin-methansulfonat]",–,–,–
79 nM,"N=C(N)NC(=O)c1ccc(N2CCN(C(=O)c3ccccn3)CC2)c(C(F)(F)F)c1 [Beispiel 10, 4-(4-(2-Pyridylcarbonyl)-1-piperazinyl)-3-trifluormethyl-benzoylguanidindimethansulfonat]",–,–,–

SMILES,IC50 (Na^+/H^+-Austauscher),"F ([1]; 0.5 mg/kg i.v., 2.5 mg/kg p.o.)","half-life [1, 2]","half-life [1, 3]"
"N=C(N)NC(=O)c1ccc(N2CCN(C(=O)c3ccc(F)cc3)CC2)c(C(F)(F)F)c1 [Beispiel 3, 4-(4-(4-Fluorphenylcarbonyl)-1-piperazinyl)-3-trifluormethylbenzoylguanidin-methansulfonat]",38 nM,71,3.1 h,5.4 h
"N=C(N)NC(=O)c1ccc(N2CCN(C(=O)c3cccc(C(F)(F)F)c3)CC2)c(C(F)(F)F)c1 [Beispiel 5, 4-(4-(3-Trifluormethylphenylcarbonyl)-1-piperazinyl)-3-trifluormethylbenzoylguanidin-hydrochlorid]",23 nM,58,5.4 h,7.5 h
